Measured values as given in paper PMC11881561 (Antimicrobial Agents and Chemotherapy, 2025).
Converted amounts (≈) assume the structure as drawn. Like-named read-outs stand apart in the source and are kept apart here.

Tests used:
[1] = test system: E. coli control strain lacking a β-lactamase; experiment: microbe, parasite or virus in culture; format: cell-based; conditions: Escherichia coli, no KPC expressed, BLIs at fixed 4 μg/mL
[2] = test system: E. coli strains expressing KPC-2^D179Y or KPC-2^D179Y/T243M; experiment: microbe, parasite or virus in culture; format: cell-based; conditions: Escherichia coli
[3] = test system: engineered E. coli strain expressing KPC-2 wt; experiment: microbe, parasite or virus in culture; format: cell-based; conditions: Escherichia coli; KPC-2 wt strain; BLIs at fixed 4 μg/mL
[4] = test system: engineered E. coli strain expressing KPC-3^D179Y/T243M; experiment: microbe, parasite or virus in culture; format: cell-based; conditions: Escherichia coli, BLIs at fixed 4 μg/mL
[5] = test system: engineered E. coli strain expressing KPC-2^D179Y/T243M; experiment: microbe, parasite or virus in culture; format: cell-based; conditions: Escherichia coli, BLIs at fixed 4 μg/mL
[6] = test system: engineered E. coli strain expressing KPC-3 wt; experiment: microbe, parasite or virus in culture; format: cell-based; conditions: Escherichia coli; KPC-3 wt strain; BLIs at fixed 4 μg/mL
[7] = test system: engineered E. coli strain expressing KPC-2^V240G; experiment: microbe, parasite or virus in culture; format: cell-based; conditions: Escherichia coli, BLIs at fixed 4 μg/mL
[8] = test system: engineered E. coli strain expressing KPC-3^V240G; experiment: microbe, parasite or virus in culture; format: cell-based; conditions: Escherichia coli, BLIs at fixed 4 μg/mL
[9] = test system: engineered E. coli strain expressing KPC-2^D179Y; experiment: microbe, parasite or virus in culture; format: cell-based; conditions: Escherichia coli, BLIs at fixed 4 μg/mL
[10] = test system: engineered E. coli strain expressing KPC-3^D179Y; experiment: microbe, parasite or virus in culture; format: cell-based; conditions: Escherichia coli, BLIs at fixed 4 μg/mL
[11] = molecular target: T1, KPC-3 WT (Klebsiella pneumoniae, UniProt Q9F663, H272Y); experiment: Inhibition kinetics (CENTA hydrolysis, jump dilution), KPC-3 wt; format: biochemical; conditions: for Kd: estimated from ratio koff / k2/K; for koff: jump dilution
T1 sequence (Q9F663 27-293 H272Y): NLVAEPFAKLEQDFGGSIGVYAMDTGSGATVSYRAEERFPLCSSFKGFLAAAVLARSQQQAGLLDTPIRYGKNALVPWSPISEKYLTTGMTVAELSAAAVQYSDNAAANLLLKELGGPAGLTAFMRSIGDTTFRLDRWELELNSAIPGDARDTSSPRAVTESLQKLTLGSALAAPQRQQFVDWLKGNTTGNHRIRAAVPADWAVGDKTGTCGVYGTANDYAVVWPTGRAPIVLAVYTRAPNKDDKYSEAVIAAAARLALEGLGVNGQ
Protocol: (§1) Measurements to determine kinetic parameters for hydrolysis, and kinetic parameters for inhibition were performed at ambient temperature in PBS (pH 7.4) containing 0.1 mg/mL bovine serum albumin, using a PowerWaveXS plate reader (BioTek).
(§2) Second-order rate constants (k2/K) denoting the inactivation efficiency of BLIs were determined by continuously measuring CENTA (100 µM) hydrolysis ([28]) in the presence of various concentrations of BLI. Progress curves were fit to equation 3 using GraphPad Prism, where Ai and A0 are the measured and basal absorbance, vi and vs are initial and final velocity, and t is time in seconds. k2/K was derived with equation 4. Koff was determined by the jump dilution method ([24]). Kd was estimated from the ratio between koff and k2/K.
(§3) (3) Ai=A0+vst(vi-vs)[1-e^-(kobs)t/kobs]
(§4) (4) kobs=k-2+(k2/KI)[I]/1+[S]/KM

[12] = test system: KPC-3^D179Y and KPC-3^D179Y/T243M; experiment: Inhibition kinetics, summary for KPC-3 D179Y variants; format: biochemical, Klebsiella pneumoniae; conditions: range over TAN, LED, AVI and both KPC-3 D179Y variants
Protocol: as §1, §2, §3, §4

[13] = molecular target: T2, KPC-2 WT (Klebsiella pneumoniae, UniProt Q9F663); format: biochemical
T2 sequence (Q9F663 25-293 limits assumed): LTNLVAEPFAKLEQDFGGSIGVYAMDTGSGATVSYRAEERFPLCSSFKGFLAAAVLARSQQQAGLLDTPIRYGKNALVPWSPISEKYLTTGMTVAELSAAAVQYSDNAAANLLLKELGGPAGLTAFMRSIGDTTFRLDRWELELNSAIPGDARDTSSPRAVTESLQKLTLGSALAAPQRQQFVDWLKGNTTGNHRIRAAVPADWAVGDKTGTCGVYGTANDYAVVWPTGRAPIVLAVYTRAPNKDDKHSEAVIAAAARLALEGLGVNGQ
Protocol: as §1, §2, §3, §4

[14] = molecular target: T3, KPC-2^V240G (Klebsiella pneumoniae, UniProt Q9F663, V239G); experiment: Inhibition kinetics (CENTA hydrolysis, jump dilution), KPC-2 V240G; format: biochemical; conditions: for Kd: estimated from ratio koff / k2/K; for koff: jump dilution
T3 sequence (Q9F663 25-293 V239G): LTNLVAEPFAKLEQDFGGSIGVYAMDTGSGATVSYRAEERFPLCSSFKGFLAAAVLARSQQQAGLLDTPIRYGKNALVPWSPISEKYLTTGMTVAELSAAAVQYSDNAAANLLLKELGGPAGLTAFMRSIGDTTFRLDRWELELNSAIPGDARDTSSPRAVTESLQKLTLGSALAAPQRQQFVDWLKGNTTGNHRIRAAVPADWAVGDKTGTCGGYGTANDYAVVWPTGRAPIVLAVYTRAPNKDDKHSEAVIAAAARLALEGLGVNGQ
Protocol: as §1, §2, §3, §4

[15] = molecular target: T4, KPC-3^D179Y (Klebsiella pneumoniae, UniProt Q9F663, D178Y/H272Y); experiment: Inhibition kinetics (CENTA hydrolysis, jump dilution), KPC-3 D179Y; format: biochemical; conditions: for Kd: estimated from ratio koff / k2/K; for koff: jump dilution
T4 sequence (Q9F663 27-293 D178Y/H272Y): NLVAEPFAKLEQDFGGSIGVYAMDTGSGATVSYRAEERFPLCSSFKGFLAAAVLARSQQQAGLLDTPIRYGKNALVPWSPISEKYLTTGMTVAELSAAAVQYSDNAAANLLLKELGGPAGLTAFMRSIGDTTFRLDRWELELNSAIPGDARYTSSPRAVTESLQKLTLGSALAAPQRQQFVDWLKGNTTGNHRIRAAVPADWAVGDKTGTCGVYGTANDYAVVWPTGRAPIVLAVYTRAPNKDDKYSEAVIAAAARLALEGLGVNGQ
Protocol: as §1, §2, §3, §4

[16] = molecular target: T5, KPC-3^D179Y/T243M (Klebsiella pneumoniae, UniProt Q9F663, D178Y/H272Y/T242M); experiment: Inhibition kinetics (CENTA hydrolysis, jump dilution), KPC-3 D179Y/T243M; format: biochemical; conditions: for Kd: estimated from ratio koff / k2/K; for koff: jump dilution
T5 sequence (Q9F663 27-293 D178Y/T242M/H272Y): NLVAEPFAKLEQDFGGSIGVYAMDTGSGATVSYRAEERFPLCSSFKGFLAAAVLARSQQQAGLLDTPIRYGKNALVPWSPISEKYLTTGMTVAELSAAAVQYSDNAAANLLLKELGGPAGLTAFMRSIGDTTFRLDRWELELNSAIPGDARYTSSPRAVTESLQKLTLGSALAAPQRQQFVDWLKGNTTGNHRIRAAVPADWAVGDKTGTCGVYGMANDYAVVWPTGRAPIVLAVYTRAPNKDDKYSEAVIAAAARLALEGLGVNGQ
Protocol: as §1, §2, §3, §4

[17] = molecular target: T6, KPC-3^V240G (Klebsiella pneumoniae, UniProt Q9F663, H272Y/V239G); experiment: Inhibition kinetics (CENTA hydrolysis, jump dilution), KPC-3 V240G; format: biochemical; conditions: for Kd: estimated from ratio koff / k2/K; for koff: jump dilution
T6 sequence (Q9F663 27-293 V239G/H272Y): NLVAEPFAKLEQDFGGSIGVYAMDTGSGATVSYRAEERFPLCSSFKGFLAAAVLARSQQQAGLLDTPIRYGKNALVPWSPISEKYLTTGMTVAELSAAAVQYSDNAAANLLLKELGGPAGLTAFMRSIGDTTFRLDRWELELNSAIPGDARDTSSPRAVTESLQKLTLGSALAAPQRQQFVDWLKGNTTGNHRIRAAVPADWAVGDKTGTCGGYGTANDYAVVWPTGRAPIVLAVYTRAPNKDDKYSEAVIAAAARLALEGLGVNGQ
Protocol: as §1, §2, §3, §4

[18] = molecular target: T7, KPC-2^D179Y (Klebsiella pneumoniae, UniProt Q9F663, D178Y); experiment: Inhibition kinetics (CENTA hydrolysis, jump dilution), KPC-2 D179Y; format: biochemical; conditions: for Kd: estimated from ratio koff / k2/K; for koff: jump dilution
T7 sequence (Q9F663 25-293 D178Y): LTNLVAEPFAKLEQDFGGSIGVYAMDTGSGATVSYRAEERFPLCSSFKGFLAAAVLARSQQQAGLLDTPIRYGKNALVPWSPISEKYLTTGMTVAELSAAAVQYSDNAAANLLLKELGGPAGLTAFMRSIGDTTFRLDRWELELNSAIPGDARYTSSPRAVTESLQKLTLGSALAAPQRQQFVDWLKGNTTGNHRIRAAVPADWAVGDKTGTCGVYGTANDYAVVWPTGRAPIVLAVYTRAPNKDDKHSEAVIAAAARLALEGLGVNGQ
Protocol: as §1, §2, §3, §4

[19] = molecular target: T8, KPC-2^D179Y/T243M (Klebsiella pneumoniae, UniProt Q9F663, D178Y/T242M); experiment: Inhibition kinetics (CENTA hydrolysis, jump dilution), KPC-2 D179Y/T243M; format: biochemical; conditions: for Kd: estimated from ratio koff / k2/K; for koff: jump dilution
T8 sequence (Q9F663 25-293 D178Y/T242M): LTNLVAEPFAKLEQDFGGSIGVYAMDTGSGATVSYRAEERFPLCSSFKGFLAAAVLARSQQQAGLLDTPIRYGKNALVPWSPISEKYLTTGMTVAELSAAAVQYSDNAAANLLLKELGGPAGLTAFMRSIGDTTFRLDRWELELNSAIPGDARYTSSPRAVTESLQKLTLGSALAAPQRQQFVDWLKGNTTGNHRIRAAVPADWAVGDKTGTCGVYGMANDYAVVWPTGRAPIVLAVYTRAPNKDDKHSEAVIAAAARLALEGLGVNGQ
Protocol: as §1, §2, §3, §4

[20] = molecular target: T2, KPC-2 WT; conditions: previously reported; cited from earlier work
[21] = molecular target: T2, KPC-2 WT; conditions: substrate hydrolysis by KPC-2 WT
[22] = molecular target: T4, KPC-3^D179Y; experiment: β-lactam hydrolysis kinetics, purified KPC-3 D179Y; format: biochemical; conditions: substrate hydrolysis by KPC-3 D179Y
Protocol: as §1
(§5) Assays to determine Michaelis-Menten kinetic parameters were performed by mixing variable amounts of enzymes (depending on the enzyme-substrate pair), with serial dilutions of different BL substrates and continuously monitoring the reduction in absorbance associated with BL hydrolysis ([28], [36], [40], [41]). Kinetic parameters were determined by plotting initial rates of hydrolysis (v) as a function of substrate concentration [S] and fitting the data to equation 1 using GraphPad Prism,
(§6) (1) v=[Et]×kcat×[S]/KM+[S]
(§7) where [Et] is the enzyme concentration, kcat the turnover number and KM the Michaelis constant.

[23] = molecular target: T3, KPC-2^V240G; format: biochemical
[24] = molecular target: T8, KPC-2^D179Y/T243M; experiment: β-lactam hydrolysis kinetics, purified KPC-2 D179Y/T243M; format: biochemical; conditions: substrate hydrolysis by KPC-2 D179Y/T243M
Protocol: as §1, §5, §6, §7

[25] = molecular target: T6, KPC-3^V240G; format: biochemical
[26] = molecular target: T1, KPC-3 WT; format: biochemical; conditions: substrate hydrolysis by KPC-3 WT
[27] = molecular target: T7, KPC-2^D179Y; experiment: β-lactam hydrolysis kinetics, purified KPC-2 D179Y; format: biochemical; conditions: substrate hydrolysis by KPC-2 D179Y
Protocol: as §1, §5, §6, §7

[28] = molecular target: T5, KPC-3^D179Y/T243M; experiment: β-lactam hydrolysis kinetics, purified KPC-3 D179Y/T243M; format: biochemical; conditions: substrate hydrolysis by KPC-3 D179Y/T243M
Protocol: as §1, §5, §6, §7

[29] = pH 7.4, inactivation efficiency, read-out: k2/K

Structure (SMILES): CC(C)(O/N=C(\C(=O)N[C@@H]1C(=O)N2C(C(=O)[O-])=C(C[n+]3ccccc3)CS[C@H]12)c1csc(N)n1)C(=O)O [CAZ, ceftazidime]
- MIC [1]: 0.5 µg/mL (≈ 0.915 µM)
- MIC [2]: > 256 µg/mL
- MIC [3]: 64 µg/mL (≈ 117 µM)
- MIC [4]: > 256 µg/mL
- MIC [5]: > 256 µg/mL
- MIC [6]: 256 µg/mL (≈ 468 µM)
- MIC [7]: > 256 µg/mL
- MIC [8]: > 256 µg/mL
- MIC [9]: > 256 µg/mL
- MIC [10]: > 256 µg/mL

Structure (SMILES): NCCN[C@H]1CC[C@H](CC(=O)N[C@H]2Cc3cccc(C(=O)O)c3OB2O)CC1 [TAN, taniborbactam]
- t1/2 [11]: 34 ± 4 min
- Kd [11]: 9 nM
- k2/K ([11]; inactivation efficiency): (3.9 ± 0.4) × 10^4 M^−1⋅s^−1
- koff [11]: (3.5 ± 0.4) × 10^−4 s^−1
- reduced inactivation efficiencies relative to KPC-3^wt [12]: 2–14 fold
- t1/2 [13]: 104 ± 2.3 min
- Kd ([13]; estimated from ratio koff / k2/K): 11 nM
- k2/K ([13]; inactivation efficiency, CENTA 100 µM): (0.9 ± 0.02) × 10^4 M^−1⋅s^−1
- koff ([13]; jump dilution): (1.0 ± 0.04) × 10^−4 s^−1
- t1/2 [14]: 106 ± 2.3 min
- Kd [14]: 55 nM
- k2/K ([14]; inactivation efficiency): (0.2 ± 0.02) × 10^4 M^−1⋅s^−1
- koff [14]: (1.1 ± 0.03) × 10^−4 s^−1
- t1/2 [15]: 14.3 ± 1.2 min
- Kd [15]: 290 nM
- k2/K ([15]; inactivation efficiency): (2.8 ± 0.2) × 10^3 M^−1⋅s^−1
- koff [15]: (8.1 ± 0.7) × 10^−4 s^−1
- t1/2 [16]: 14.6 ± 5 min
- Kd [16]: 193 nM
- k2/K ([16]; inactivation efficiency): (4.4 ± 0.7) × 10^3 M^−1⋅s^−1
- koff [16]: (8.5 ± 2.5) × 10^−4 s^−1
- t1/2 [17]: 14.4 ± 0.7 min
- Kd [17]: 18 nM
- k2/K ([17]; inactivation efficiency): (4.4 ± 0.9) × 10^4 M^−1⋅s^−1
- koff [17]: (8.0 ± 0.4) × 10^−4 s^−1
- t1/2 ([18]; KPC-2 D179Y): 231 ± 19.4 min
- Kd ([18]; KPC-2 D179Y): 2900 nM
- koff ([18]; KPC-2 D179Y): (5.0 ± 0.4) × 10^−5 s^−1
- reduction in k2/K ([18]; KPC-2^D179Y relative to KPC-2 wt): roughly 500 fold
- k2/K ([18]; inactivation efficiency, KPC-2 D179Y): 17 ± 0.7 M^−1⋅s^−1
- t1/2 ([19]; KPC-2 D179Y/T243M): 222.3 ± 13.7 min
- Kd ([19]; KPC-2 D179Y/T243M): 3400 nM
- koff ([19]; KPC-2 D179Y/T243M): (5.2 ± 0.3) × 10^−5 s^−1
- reduction in k2/K ([19]; KPC-2^D179Y/T243M relative to KPC-2 wt): ~600 fold
- k2/K ([19]; inactivation efficiency, KPC-2 D179Y/T243M): 15.2 ± 0.1 M^−1⋅s^−1

Structure (SMILES): CCC(=O)N[C@H]1Cc2cccc(C(=O)O)c2OB1O [LED, ledaborbactam]
- t1/2 [11]: 19.6 ± 0.2 min
- Kd [11]: 220 nM
- koff ([11]; read-out: koff): 0.00059 s⁻¹
- kinact/KI [11, 29]: 2700 M⁻¹ s⁻¹
- reduced inactivation efficiencies relative to KPC-3^wt [12]: 2–14 fold
- t1/2 [14]: 32 ± 1 min
- Kd [14]: 12 nM
- koff ([14]; read-out: koff): 0.00037 s⁻¹
- kinact/KI [14, 29]: 31000 M⁻¹ s⁻¹
- t1/2 [15]: 17.2 ± 0.3 min
- Kd [15]: 1250 nM
- koff ([15]; read-out: koff): 0.00067 s⁻¹
- kinact/KI [15, 29]: 540 M⁻¹ s⁻¹
- t1/2 [16]: 18.1 ± 2.2 min
- Kd [16]: 620 nM
- koff ([16]; read-out: koff): 0.00065 s⁻¹
- kinact/KI [16, 29]: 1000 M⁻¹ s⁻¹
- t1/2 [17]: 19.3 ± 0.4 min
- Kd [17]: 46 nM
- koff ([17]; read-out: koff): 0.0006 s⁻¹
- kinact/KI [17, 29]: 13000 M⁻¹ s⁻¹
- Kd [20]: 9 nM
- k2/K [20]: (2.9 ± 0.07) × 10^4 M^−1⋅s^−1
- koff [20]: (2.5 ± 0.1) × 10^−4 s^−1
- t1/2 ([18]; KPC-2 D179Y): 16.7 ± 0.5 min
- Kd ([18]; KPC-2 D179Y): 1300 nM
- koff ([18]; KPC-2 D179Y, read-out: koff): 0.00069 s⁻¹
- kinact/KI ([18]; pH 7.4, inactivation efficiency, KPC-2 D179Y, read-out: k2/K): 520 M⁻¹ s⁻¹
- t1/2 ([19]; KPC-2 D179Y/T243M): 18.6 ± 2.7 min
- Kd ([19]; KPC-2 D179Y/T243M): 1500 nM
- koff ([19]; KPC-2 D179Y/T243M, read-out: koff): 0.00063 s⁻¹
- kinact/KI ([19]; pH 7.4, inactivation efficiency, KPC-2 D179Y/T243M, read-out: k2/K): 430 M⁻¹ s⁻¹

Structure (SMILES): O=C(Cc1cccs1)N[C@@H]1C(=O)N2C(C(=O)O)=C(CSc3ccc([N+](=O)[O-])c(C(=O)O)c3)CS[C@H]12 [CENTA]
- kcat [21]: 243 ± 11 s⁻¹
- Km ([21]; PBS pH 7.4): 19.7 ± 1.3 µM
- Km [22]: 124 ± 17 µM
- kcat [22]: 0.24 ± 0.02 s⁻¹
- Km [23]: 63.3 ± 2.3 µM
- kcat [23]: 662 ± 9.6 s⁻¹
- Km [24]: 2.1 ± 0.3 µM
- kcat [24]: (0.9 ± 0.04) × 10^−2 s^−1
- Km [25]: 54.8 ± 8.3 µM
- kcat [25]: 12.7 ± 1.1 s⁻¹
- Km [26]: 105 ± 24 µM
- kcat [26]: 38 ± 3.4 s⁻¹
- Km [27]: 1.9 ± 0.2 µM
- kcat [27]: (1.2 ± 0.08) × 10^−2 s^−1
- Km [28]: 153 ± 25 µM
- kcat [28]: 0.18 ± 0.02 s⁻¹
